# Source: patent publication US5420287A, “1,2 diarylcyclopentenyl compounds for the treatment of inflammation” (G. D. Searle & Co., priority 1994, dated 1995)
# Tested on: carrageenan foot edema
# Assay: Rat Carrageenan Foot Pad Edema Test
# Assay type: in vivo, Male Sprague-Dawley rats
# Conditions: @ 10 mg/kg body weight, oral, 3 h after carrageenan injection, read-out: RAT PAW EDEMA % Inhibition
# Procedure: One hour later a subplantar injection of 0.1 mL of 1% solution of carrageenan/sterile 0.9% saline was administered and the volume of the injected foot was measured with a displacement plethysmometer connected to a pressure transducer with a digital indicator.
structure (smiles),measurement,value
"CS(=O)(=O)c1ccc(C2=C(c3ccc(F)cc3)CCC2)cc1 [Example 1, 1-[2-(4-fluorophenyl)cyclopenten-1-yl]-4-(methylsulfonyl)benzene]",inhibition in vivo at 10 mg/kg,33%
